How the values were obtained:
Type in all cases: physicochemical
[1] = Maximum wavelength of formed pigment
Protocol: 50 μl of 1 mM each free compound was added to 3 ml of 0.1M phosphate buffer containing 0.5 mg/ml EMSE and 1 U/ml laccase and the mixture was incubated at 37° C. for 5 minutes. The absorption of the reaction solution at λmax was measured. As a control, 5-aminosalicylic acid was used and the reaction of the compound with 2,6-xylenol was carried out in the presence of metaperiodate under strong alkaline conditions.

Stability of pigment = test: Stability of pigment
Solubility of substrate = conditions: read-out: S: Solubility

SMILES: CC(C)C[C@H](N)C(=O)Nc1ccc(O)c(C(=O)O)c1 [Control, reference compound]
- λmax: Maximum wavelength [1]: 615 nm
- ST: Stability of pigment (Stability of pigment): 90%
- solubility (Solubility of substrate): < 20 mg/mL

— patent publication US4877727A, “Substrate for determining leucine aminopeptidase or gamma-glutamyltranspeptase activity” (Kyowa Medex Co., Ltd., priority 1984, dated 1989)
